Results published in publication PMC10518257 (Nature Cancer, 2023).
Values joined by “and” are separate entries in the source; they are usually repeats but may differ in a detail not shown here. Equal entries are not always repeated. Where two headings read alike, the source gives them in different places.

Experiment: Pharmacokinetic analysis of vepafestinib in rats (microdialysis PFC, CSF, plasma)
Format: in vivo, male Han Wistar rats

With `COCc1ccc(NC(=O)c2c(C#CCN3CCOCC3)n(C3(C)CC3)c3ncnc(N)c23)cc1` [Vepafestinib, 4-amino-N-[4-(methoxymethyl)phenyl]-7-(1-methylcyclopropyl)-6-[3-(morpholin-4-yl)prop-1-yn-1-yl]-7H-pyrrolo[2,3-d]pyrimidine-5-carboxamide] as the compound, how does the “Concentration in Rats, Plasma (free fraction)” value (“Concentration … (free fraction)” below) (3 mg/kg, 30 min, individual rats) read?
The value was 411 nM and 290 nM and 384 nM and 193 nM.

What about the “Concentration … (free fraction)” value (3 mg/kg, 60 min, individual rats) of the same compound?
The value was 248 nM and 212 nM and 391 nM and 168 nM.

And the concentration at 480 min (3 mg/kg, 60 min, individual rats, read-out: Concentration in Rats, Cerebrospinal fluid)?
Its concentration at 480 min is 109 nM.

And the concentration at 120 min (3 mg/kg, 60 min, individual rats, read-out: Concentration in Rats, Plasma (total))?
Its concentration at 120 min is 1620 nM and 1390 nM and 2560 nM and 1100 nM.

What about the “Concentration … (free fraction)” value (3 mg/kg, 120 min, individual rats) of the same compound?
The value was 129 nM and 143 nM and 163 nM and 115 nM.

What about the “Concentration … (free fraction)” value (3 mg/kg, 180 min, individual rats) of the same compound?
The value was 68 nM and 120 nM and 97.8 nM and 63 nM.

And the “Concentration … (free fraction)” value (3 mg/kg, 300 min, individual rats)?
Its value is 17.3 nM and 28.1 nM and 50.7 nM and 32.7 nM.

What about the “Concentration … (free fraction)” value (3 mg/kg, 360 min, individual rats) of the same compound?
Its value is 8.57 nM and 13.7 nM and 36.5 nM.

And the “Concentration … (free fraction)” value (3 mg/kg, 480 min, individual rats)?
Its value is 24.3 nM.

What about the “Concentration … (free fraction)” value (10 mg/kg, 30 min, individual rats) of the same compound?
Its value is 1323 nM and 1543 nM and 1071 nM and 1204 nM.

What about the “Concentration … (free fraction)” value (10 mg/kg, 60 min, individual rats) of the same compound?
Its value is 1016 nM and 1083 nM and 660 nM and 921 nM.

What about the “Concentration … (free fraction)” value (10 mg/kg, 120 min, individual rats) of the same compound?
The value was 503 nM and 680 nM and 665 nM and 714 nM.

What about the “Concentration … (free fraction)” value (10 mg/kg, 180 min, individual rats) of the same compound?
Its value is 272 nM and 513 nM and 529 nM and 374 nM.

What about the “Concentration … (free fraction)” value (10 mg/kg, 240 min, individual rats) of the same compound?
Its value is 133 nM and 237 nM and 243 nM and 244 nM.

What about the “Concentration … (free fraction)” value (10 mg/kg, 300 min, individual rats) of the same compound?
The value was 53.6 nM and 90.5 nM and 129 nM and 102 nM.

And the “Concentration … (free fraction)” value (10 mg/kg, 360 min, individual rats)?
The value was 30.4 nM and 53.8 nM and 63.3 nM and 53.6 nM.

What about the “Concentration … (free fraction)” value (10 mg/kg, 480 min, individual rats) of the same compound?
Its value is 15.6 nM and 25.5 nM and 17.7 nM.

What about the “Concentration … (free fraction)” value (50 mg/kg, 30 min, individual rats) of the same compound?
The value was 2310 nM and 2399 nM and 2002 nM and 1803 nM.

And the “Concentration … (free fraction)” value (50 mg/kg, 60 min, individual rats)?
Its value is 1589 nM and 1818 nM and 1742 nM and 1803 nM.

What about the “Concentration … (free fraction)” value (50 mg/kg, 120 min, individual rats) of the same compound?
Its value is 1415 nM and 2506 nM and 1273 nM and 2017 nM.

And the “Concentration … (free fraction)” value (50 mg/kg, 180 min, individual rats)?
Its value is 947 nM and 2200 nM and 964 nM and 1305 nM.

And the “Concentration … (free fraction)” value (50 mg/kg, 240 min, individual rats)?
The value was 591 nM and 2093 nM and 1166 nM and 1108 nM.

And the “Concentration … (free fraction)” value (50 mg/kg, 300 min, individual rats)?
The value was 740 nM and 1435 nM and 817 nM and 694 nM.

And the “Concentration … (free fraction)” value (50 mg/kg, 360 min, individual rats)?
The value was 891 nM and 1181 nM and 821 nM and 400 nM.

And the “Concentration … (free fraction)” value (50 mg/kg, 480 min, individual rats)?
Its value is 20.5 nM and 680 nM and 743 nM and 651 nM.

And the concentration at 120 min (male, Han Wistar, rat, cerebrospinal fluid, oral, 3 mg/kg, 120 min, individual rats, read-out: Concentration in Rats, Cerebrospinal fluid)?
The concentration at 120 min was 67.4 nM.

What about the concentration at 240 min (male, Han Wistar, rat, cerebrospinal fluid, oral, 3 mg/kg, 240 min, individual rats, read-out: Concentration in Rats, Cerebrospinal fluid) of the same compound?
Its concentration at 240 min is 28.8 nM.

What about the concentration at 480 min (male, Han Wistar, rat, cerebrospinal fluid, oral, 3 mg/kg, 480 min, individual rats, read-out: Concentration in Rats, Cerebrospinal fluid) of the same compound?
The concentration at 480 min was 8.78 nM.

And the concentration at 30 min (male, Han Wistar, rat, cerebrospinal fluid, oral, 10 mg/kg, 30 min, individual rats, read-out: Concentration in Rats, Cerebrospinal fluid)?
The concentration at 30 min was 961 nM.

And the concentration at 120 min (male, Han Wistar, rat, cerebrospinal fluid, oral, 10 mg/kg, 120 min, individual rats, read-out: Concentration in Rats, Cerebrospinal fluid)?
Its concentration at 120 min is 585 nM.

And the concentration at 480 min (male, Han Wistar, rat, cerebrospinal fluid, oral, 50 mg/kg, rats, 50 mg/kg, 480 min, individual animals, read-out: Concentration in Cerebrospinal fluid)?
The concentration at 480 min was 430 nM.

And the concentration at 480 min (male, Han Wistar, rat, cerebrospinal fluid, oral, 50 mg/kg, 480 min, individual rats, read-out: Concentration in Rats, Cerebrospinal fluid)?
The concentration at 480 min was 486 nM.

What about the concentration at 120 min (male, Han Wistar, rat, plasma (total), oral, 3 mg/kg, 120 min, individual rats, read-out: Concentration in Rats, Plasma (total)) of the same compound?
Its concentration at 120 min is 845 nM.

What about the concentration at 180 min (male, Han Wistar, rat, plasma (total), oral, 3 mg/kg, 180 min, individual rats, read-out: Concentration in Rats, Plasma (total)) of the same compound?
The concentration at 180 min was 445 nM.

And the concentration at 480 min (male, Han Wistar, rat, plasma (total), oral, 3 mg/kg, 480 min, individual rats, read-out: Concentration in Rats, Plasma (total))?
The concentration at 480 min was 159 nM.

What about the concentration at 30 min (male, Han Wistar, rat, plasma (total), oral, 10 mg/kg, 30 min, individual rats, read-out: Concentration in Rats, Plasma (total)) of the same compound?
Its concentration at 30 min is 8660 nM.

What about the concentration at 60 min (male, Han Wistar, rat, plasma (total), oral, 10 mg/kg, 60 min, individual rats, read-out: Concentration in Rats, Plasma (total)) of the same compound?
Its concentration at 60 min is 6650 nM.

What about the concentration at 120 min (male, Han Wistar, rat, plasma (total), oral, 10 mg/kg, 120 min, individual rats, read-out: Concentration in Rats, Plasma (total)) of the same compound?
The concentration at 120 min was 3290 nM.

And the concentration at 180 min (male, Han Wistar, rat, plasma (total), oral, 10 mg/kg, 180 min, individual rats, read-out: Concentration in Rats, Plasma (total))?
Its concentration at 180 min is 1780 nM.

And the concentration at 240 min (male, Han Wistar, rat, plasma (total), oral, 10 mg/kg, 240 min, individual rats, read-out: Concentration in Rats, Plasma (total))?
The concentration at 240 min was 872 nM.

And the concentration at 480 min (male, Han Wistar, rat, plasma (total), oral, 10 mg/kg, 480 min, individual rats, read-out: Concentration in Rats, Plasma (total))?
The concentration at 480 min was 102 nM.

What about the concentration at 120 min (male, Han Wistar, rat, plasma (total), oral, 50 mg/kg, rats, 50 mg/kg, 120 min, individual animals, read-out: Concentration in Plasma (total)) of the same compound?
Its concentration at 120 min is 9260 nM.

What about the concentration at 30 min (male, Han Wistar, rat, plasma (total), oral, 50 mg/kg, 30 min, individual rats, read-out: Concentration in Rats, Plasma (total)) of the same compound?
Its concentration at 30 min is 15100 nM.

What about the concentration at 60 min (male, Han Wistar, rat, plasma (total), oral, 50 mg/kg, 60 min, individual rats, read-out: Concentration in Rats, Plasma (total)) of the same compound?
The concentration at 60 min was 10400 nM.

What about the concentration at 120 min (male, Han Wistar, rat, plasma (total), oral, 50 mg/kg, 120 min, individual rats, read-out: Concentration in Rats, Plasma (total)) of the same compound?
Its concentration at 120 min is 9260 nM.

And the concentration at 30 min (male, Han Wistar, rat, plasma, oral, 50 mg/kg, rats, 50 mg/kg, 30 min, individual animals, read-out: Concentration in Plasma (total))?
Its concentration at 30 min is 15100 nM.
